These compounds were tested against T1, sodium-proton exchanger of subtype 3 (NHE3) (Homo sapiens, UniProt P48764) (assay: Recovery of intracellular pH (pHi) after acidification in LAP1 cells stably expressing NHE3 (BCECF fluorescence, FLIPR)). Settings: LAP1 cells stably expressing NHE3; pH recovery after acidification; range 1 is % inhibition at 10 μM; read-out: Activity range (inhibitory effect on NHE3).
T1 construct: expressed in transfected cells
T1 sequence (P48764 26-834): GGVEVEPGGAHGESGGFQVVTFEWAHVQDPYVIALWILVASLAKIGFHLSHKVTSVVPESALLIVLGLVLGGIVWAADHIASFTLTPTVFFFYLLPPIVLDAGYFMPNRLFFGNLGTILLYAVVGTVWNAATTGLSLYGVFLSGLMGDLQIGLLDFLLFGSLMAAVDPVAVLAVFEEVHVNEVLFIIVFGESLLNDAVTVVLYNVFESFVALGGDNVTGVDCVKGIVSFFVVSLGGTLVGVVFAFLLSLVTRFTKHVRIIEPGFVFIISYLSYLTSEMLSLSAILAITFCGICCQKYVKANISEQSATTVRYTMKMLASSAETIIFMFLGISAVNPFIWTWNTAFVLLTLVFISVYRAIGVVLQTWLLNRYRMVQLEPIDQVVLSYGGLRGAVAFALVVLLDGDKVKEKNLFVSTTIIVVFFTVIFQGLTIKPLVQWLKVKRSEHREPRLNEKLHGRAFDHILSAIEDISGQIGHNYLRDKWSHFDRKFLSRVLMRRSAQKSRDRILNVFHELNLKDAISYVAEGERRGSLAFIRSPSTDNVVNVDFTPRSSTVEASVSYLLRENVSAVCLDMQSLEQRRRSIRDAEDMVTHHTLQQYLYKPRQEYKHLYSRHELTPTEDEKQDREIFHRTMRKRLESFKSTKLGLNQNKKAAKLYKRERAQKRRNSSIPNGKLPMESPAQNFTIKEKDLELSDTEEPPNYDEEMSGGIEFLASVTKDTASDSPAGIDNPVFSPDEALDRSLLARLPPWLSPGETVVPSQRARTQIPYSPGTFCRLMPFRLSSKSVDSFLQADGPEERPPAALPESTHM
Assay type: cell-based

Compound | IC50 [µM] | inhibition at 10 µM [%]
CC(=O)Nc1ccc(S[C@H]2c3cc(Cl)cc(Cl)c3C[C@@H]2N2CC[C@@H](O)C2)cc1 [Example 699, N-{4-[(1S,2S)-4,6-dichloro-2-((R)-3-hydroxypyrrolidin-1-yl)indan-1-ylsulfanyl]phenyl}acetamide] | 1 to 10 | –
CS(=O)(=O)c1ccc(O[C@H]2c3cc(Cl)c(Cl)cc3C[C@@H]2N2CCCNCC2)cc1 (racemic) [Example 286, 1-[rac-trans-(1,2)-5,6-dichloro-1-(4-methanesulfonylphenoxy)indan-2-yl]-[1,4]diazepane] | 1 to 10 | –
Clc1cc(Cl)c2c(c1)[C@H](Oc1cccc(-n3cnnn3)c1)[C@@H](N1CCNCC1)C2 [Example 248, 1-[(1S,2S)-4,6-dichloro-1-(3-tetrazol-1-ylphenoxy)indan-2-yl]piperazine] | < 1 | –
CS(=O)(=O)c1ccc(O[C@H]2c3cc(Cl)cc(Cl)c3C[C@@H]2N2CCNCC2)cc1 [Example 308, 1-[trans-(1S,2S)-4,6-dichloro-1-(4-methanesulfonylphenoxy)indan-2-yl]piperazine] | < 1 | –
CC1(C)NC(=O)N(c2ccc(F)c(O[C@H]3c4cc(Cl)cc(Cl)c4C[C@@H]3N3CC[C@@H](O)C3)c2)C1=O [Example 416, 3-{3-[(1S,2S)-4,6-dichloro-2-((R)-3-hydroxypyrrolidin-1-yl)indan-1-yloxy]-4-fluorophenyl}-5,5-dimethylimidazolidine-2,4-dione] | 1 to 10 | –
O=C(O)COC(=O)Nc1ccc(O[C@H]2c3cc(Cl)cc(Cl)c3C[C@@H]2N2CC[C@@H](O)C2)c(Cl)c1 [Example 236, {3-chloro-4-[(1S,2S)-4,6-dichloro-2-((R)-3-hydroxypyrrolidin-1-yl)indan-1-yloxy]phenylcarbamoyloxy}acetic acid] | < 1 | –
CC1(C)OC(=O)N(c2ccc(Cl)c(O[C@H]3c4cc(Cl)cc(Cl)c4C[C@@H]3N3CC[C@@H](O)C3)c2)C1=O [Example 432, 3-{4-chloro-3-[(1S,2S)-4,6-dichloro-2-((R)-3-hydroxypyrrolidin-1-yl)indan-1-yloxy]phenyl}-5,5-dimethyloxazolidine-2,4-dione] | 1 to 10 | –
O=C1CCCN1c1ccc(O[C@H]2c3cc(Cl)cc(Cl)c3C[C@@H]2N2CCC2)cc1 [Example 259, 1-[4-((1S,2S)-2-azetidin-1-yl-4,6-dichloroindan-1-yloxy)phenyl]pyrrolidin-2-one] | – | 20 to 50
COc1cccc(CC#N)c1O[C@H]1c2ccccc2CC[C@@H]1N1CCOCC1 (racemic) [Example 213, [3-methoxy-2-(rac-trans-(1,2)-2-morpholin-4-yl-1,2,3,4-tetrahydronaphthalen-1-yloxy)phenyl]acetonitrile] | – | 20 to 50
Cc1cc(=O)cc(C)n1-c1ccc(O[C@H]2c3cc(Cl)cc(Cl)c3C[C@@H]2N2CC[C@@H](O)C2)c(F)c1 [Example 324, 1-{4-[(1S,2S)-4,6-dichloro-2-((R)-3-hydroxypyrrolidin-1-yl)indan-1-yloxy]-3-fluorophenyl}-2,6-dimethyl-1H-pyridin-4-one] | < 1 | –
N#Cc1ccc(O[C@H]2c3cc(Cl)cc(Cl)c3C[C@@H]2N2CCC2)c(F)c1 [Example 454, 4-((1S,2S)-2-azetidin-1-yl-4,6-dichloroindan-1-yloxy)-3-fluorobenzonitrile] | – | 20 to 50

The remaining lines, values ahead:

IC50 [µM] | inhibition at 10 µM [%] | Compound
< 1 | – | CC1(C)NC(=O)N(c2ccc(O[C@H]3c4cc(Cl)cc(Cl)c4C[C@@H]3N3CC[C@@H](O)C3)cc2)C1=O [Example 425, 3-{4-[(1S,2S)-4,6-dichloro-2-((R)-3-hydroxypyrrolidin-1-yl)indan-1-yloxy]phenyl}-5,5-dimethylimidazolidine-2,4-dione]
< 1 | – | NS(=O)(=O)c1ccc(O[C@H]2c3ccccc3C[C@@H]2N2CCCC2)c(F)c1 (racemic) [Example 451, 3-fluoro-4-(2-pyrrolidin-1-ylindan-1-yloxy)benzenesulfonamide]
1 to 10 | – | N#Cc1ccc(O[C@H]2c3ccccc3CC[C@@H]2N2CCC[C@@H](N)C2)c(Cl)c1 (racemic) [Example 514, 4-[rac-trans-(1,2)-2-((R)-3-aminopiperidin-1-yl)-1,2,3,4-tetrahydronaphthalen-1-yloxy]-3-chlorobenzonitrile]
– | 20 to 50 | N#Cc1ccc2cccc(O[C@H]3c4ccccc4CC[C@@H]3N3CCOCC3)c2n1 (racemic) [Example 594, 8-(rac-trans-(1,2)-2-morpholin-4-yl-1,2,3,4-tetrahydronaphthalen-1-yloxy)quinoline-2-carbonitrile]
– | 20 to 50 | Clc1cc(Cl)c2c(c1)[C@H](Oc1ccc(-n3cncn3)cc1)[C@@H](N1CCOCC1)C2 (racemic) [Example 549, 4-[rac-trans-(1,2)-4,6-dichloro-1-(4-[1,2,4]triazol-1-ylphenoxy)indan-2-yl]morpholine]
< 1 | – | N[C@@H]1CCCN([C@H]2Cc3c(Cl)cc(Cl)cc3[C@@H]2Oc2ccc(-n3ccnc3)cc2)C1 [Example 98, (R)-1-[trans-(1S,2S)-4,6-dichloro-1-(4-imidazol-1-ylphenoxy)indan-2-yl]piperidin-3-ylamine]
– | 20 to 50 | CS(=O)(=O)c1cccc(O[C@H]2c3ccccc3C[C@@H]2N2CCCC2)c1 (racemic) [Example 269, 1-[rac-trans-(1,2)-1-(3-methanesulfonylphenoxy)indan-2-yl]pyrrolidine]
– | 20 to 50 | N[C@H]1CCCN([C@H]2CCc3ccccc3[C@@H]2Oc2ccccc2N2CCOCC2)C1 (racemic) [Example 158, (S)-1-[rac-trans-(1,2)-1-(2-morpholin-4-ylphenoxy)-1,2,3,4-tetrahydronaphthalen-2-yl]piperidin-3-ylamine]
1 to 10 | – | CN(C1CCCNC1)[C@@H]1Cc2ccccc2[C@H]1Oc1cccc2[nH]ccc12 (mixture of isomers) [Example 214, [rac-trans-(1,2)-1-(1H-indol-4-yloxy)indan-2-yl]methylpiperidin-3-ylamine]
1 to 10 | – | CS(=O)(=O)c1ccc(O[C@H]2c3ccccc3C[C@@H]2CN2CCCC2)cc1 (racemic) [Example 274, 1-[rac-trans-(1,2)-1-(4-methanesulfonylphenoxy)indan-2-ylmethyl]pyrrolidine]
1 to 10 | – | c1ccc2c(c1)C[C@@H](N1C[C@H]3CNC[C@H]3C1)[C@@H]2Oc1ccc2cc[nH]c2c1 (racemic) [Example 587, 6-[rac-trans-(1,2)-2-(Hexahydropyrrolo[3,4-c]pyrrol-2-yl)indan-1-yloxy]-1H-indole]
– | 20 to 50 | N[C@@H]1CCCN([C@H]2CCc3ccccc3[C@@H]2Oc2ccnc(Cl)c2)C1 (racemic) [Example 40, (R)-1-[rac-trans-(1,2)-1-(2-chloropyridin-4-yloxy)-1,2,3,4-tetrahydronaphthalen-2-yl]piperidin-3-ylamine]
1 to 10 | – | c1ccc2c(c1)C[C@@H](N1C[C@H]3CNC[C@H]3C1)[C@@H]2Oc1ccc(-n2ccnc2)cc1 (racemic) [Example 7, 2-[rac-trans-(1,2)-1-(4-imidazol-1-ylphenoxy)indan-2-yl]octahydropyrrolo[3,4-c]pyrrole]
< 1 | – | CN(C)S(=O)(=O)c1ccc(OC2c3ccccc3CC2N2CCC[C@@H](N)C2)c(Cl)c1Cl (mixture of isomers) [Example 520, 4-[rac-trans-(1,2)-2-((R)-3-aminopiperidin-1-yl)indan-1-yloxy]-2,3-dichloro-N,N-dimethylbenzenesulfonamide]
